Tested on: interferon-alpha
Test: Sensitization by a first danger signal to a subsequent Protamine-RNA injection, serum interferon-alpha (ELISA)
Type: in vivo, mice
Details: first injection: 50 micrograms CpG, 10 micrograms imiquimod, 2 micrograms dsRNA or 10 micrograms RNA in particles, then 10 micrograms RNA in Protamine particles, sera 3 h after second injection, vs single Protamine-RNA injection
Description: The DNA oligonucleotide “CpG 1585” (invivogen) which is a mouse TLR9 agonist was diluted at 0.5 micrograms per microlitre in PBS. Imiquimod (invivogen) was diluted to 0.1 microgram per microliter in PBS. RNA (mRNA coding for firefly luciferase) and Protamine were diluted to 0.5 mg/ml using pure water. Hundred micrograms RNA (200 microliters) were mixed with hundred micrograms Protamine IPEX (200 microliters) thereby generating approximately 100 nm particles. Forty percent Glucose was added to reach 5% glucose final and 5% Glucose was added so that the final injectable solution contains 10 micrograms RNA (and 10 micrograms Protamine) in 70 microliters.
Mice were injected intravenous with 100 microliters of CpG (50 micrograms DNA “CpG(2h)PR11”) or 100 microliters of imiquimod (10 micrograms Imiquimod “Imi(2h)PR11”) or 70 microliters of Protamine-RNA particles (10 micrograms RNA “PR11(2h)PR11”) and 2 hours later all received 70 microliters of Protamine-RNA (10 micrograms RNA) intravenous. Three mice per group. Sera were drawn 3 hours after this second injection. As controls, mice were injected intravenous with 100 microliters of CpG (50 micrograms “CpG alone”) or 100 microliters of imiquimod (10 micrograms “Imi alone”) or 70 microliters of Protamine-RNA particles (10 micrograms RNA “PR11 alone”). Three mice per group. […] Interferon-alpha was measured in sera using Verikine™ ELISA kit from PBL. […]

How did the “interferon-alpha in serum when given i.v. as first injection 2 h before Protamine-RNA particles” value turn out when `CC(C)Cn1cnc2c(N)nc3ccccc3c21` [Imiquimod] was run?
Its value is “can sensitize the immune system to produce an enhanced amount of interferon-alpha”.

What about the “interferon-alpha in serum when given i.v. as first injection 2 h before Protamine-RNA particles” value (listed as imiquimod) of the same compound?
Its value is “strong (synergistic) interferon production”.

From US20220347308A1, “METHODS AND MEANS FOR INDUCING AN IMMUNE RESPONSE” (BIONTECH AG, priority 2015, published 2022)
